# Like-named read-outs stand apart in the source and are kept apart here.
# Assays:
# [1] = system: Wnt/β-catenin signaling; test: Luciferase reporter assay (Super8XTOPFlash) for Wnt/β-catenin signaling in HEK293 cells; type: cell-based; conditions: 24 h; for EC50: Homo sapiens, Wnt3A plasmid-transfected HEK293 cells, 30-30,000 nM, mean and SD of 3-7 independent experiments; for Wnt reporter activity / activation of Wnt/β-catenin signaling: HEK293 cells
# Method: (§1) (A) structures of niciosamide and CI-994; (B) HEK293 cells were transfected with Super8XTOPFlash and β galactosidase vectors along with Wnt3A or control vector. After 24 hours incubation, cells were treated with CI-994 at the indicated concentration for 24 hr. The luciferase activity was then measured and normalized to the activity of the β-galactosidase. (C) HT1080 cells stably transduced LRP6 with HA tag were treated with niciosamide and CI-994 at the indicated concentrations for 24 h. The levels of HA-LRP6 were examined by Western blot with anti-HA antibody. (D) Western blots showing the depletion of LRP6 after 2 days of transiently transfection of 50 nM LRP6 siRNA in HEK293 cells. ON-TARGETplus double-stranded siRNA oligomers against human LRP6 and non-specific scrambled siRNA control (Stealth RNAi™ siRNA Negative Control, Med GC) were purchased from Thermo Scientific. siRNA LRP6-1, siRNA LRP6-2 and control siRNA were Thermo Scientific catalog numbers J-003845-09, J-003845-11 and 12935300, respectively. (E) HEK293 cells were transfected with LRP6 siRNAs, and after 8 h incubation were further transfected with Super8XTOPFlash construct and β galactosidase-expressing vector. After 24 h incubation, the cells were treated with CI-994 (16 μM) for 24 h. The luciferase activity was then measured and normalized to β-galactosidase activity. All the values are the average of triplicate determinations with the SD values indicated by error bars. **P<0.01 versus corresponding control value.
# HEK293 cells were transfected with SuperXTOPFlash and β-galactosidase vectors along with Wnt3A or control vector. After 24 h incubation, cells were treated with 1015 or 1039 at the indicated concentrations for 24 h. The luciferase activity was then measured and normalized to the activity of the β-galactosidase. All the values are the average of triplicate determinations with the SD values indicated by error bars. This experiment is representative of at least three such experiments performed with similar data.
# Luciferase reporter assay for Wnt/β-catenin signaling: HEK293 cells were plated into 24-well plates. After overnight culture, the cells were transiently transfected with the Super8XTOPFlash luciferase construct and β-galactosidase-expressing vector along with or without Wnt3A plasmid. After 24 h incubation, cells were treated with each individual compound at the indicated concentrations for 24 h. Cells were then lysed and both luciferase and β-galactosidase activities were determined. The luciferase activity was normalized to the β-galactosidase activity.
# HEK293 cells were plated into 24-well plates. After overnight culture, the cells were transiently transfected with the Super8XTOPFlash luciferase construct and β-galactosidase-expressing vector along with the Wnt3A plasmid. After 24 h incubation, the cells were treated with each individual compound at 30-30,000 nM in triplication for 24 h. The cells were then lysed, and luciferase and β-galactosidase activities were determined with the luciferase assay system (Promega, Cat. #E1501) and β-galactosidase assay system (Promega, Cat. #E2000), respectively. The luciferase activity was normalized to the s-galactosidase activity, and the EC50 values were calculated by use of GraphPad software, and shown in the below table. All the EC50 values (mean and SD) are from 3-7 independent experiments.
# [2] = system: C2C12 cells; test: Alkaline phosphatase (ALP) activity assay, osteoblastic differentiation of C2C12 cells; type: cell-based; conditions: dose-response 0.1-12.8 μM, 72 h
# Method: C2C12 cells were seeded into 24-well plates (1×10^5 cells/well). After culture overnight, the cells were treated with a Wnt activator at 0.8 μM (A) and 1.6 μM (B) for 72 h. The ALP activity was measured by ALP assay kit from AnaSpec (AS-72146). All the values are the average of triple determinations with the s.d. indicated by error bars. *P<0.05, **P<0.01 versus corresponding control value. This experiment is a representation of two such experiments performed with similar data.
# C2C12 cells were seeded into 24-well plates (1×10^5 cells/well). After culture overnight, the cells were treated with the noted compounds at 0, 0.1, 0.2, 0.4, 0.8, 1.6, 3.2, 6.4 and 12.8 μM for 72 hours. The ALP activity was measured by ALP assay kit from AnaSpec (AS-72146). All the values are the average of triple determinations with the s.d. indicated by error bars.
# Alkaline phosphatase (ALP) activity assay: C2C12 cells in 24-well plates were treated with each individual compound at the indicated concentrations for 72 h. Cells were then harvested for assay of ALP activity with the ALP assay kit (AnaSpec) according to the manufacturers specifications.
# [3] = Aqueous (kinetic) solubility assay in PBS pH 7.4; type: physicochemical; conditions: phosphate-buffered saline, 25 °C, pH 7.4, aqueous buffer, kinetic from dmso stock, PBS pH 7.4, 2% DMSO, two hours, assay range 2-200 μM
# Method: Aqueous solubility assay: Using a 10 mM stock solution of the compound in 100% DMSO, dilutions were prepared to a theoretical concentration of 200 μM in duplicates in phosphate-buffered saline pH 7.4 with 2% final DMSO. In parallel, compound dilutions in 50% acetonitrile/PBS were prepared to theoretical concentrations of 0 μM (blank), 50 μM, 100 μM and 200 μM with 2% final DMSO to generate calibration curves. The experimental compound dilutions in PBS were further allowed to equilibrate at 25° C. on a thermostatic orbital shaker for two hours and then centrifuged at 14000 rpm, 5 min and filtered through HTS filter plates using a vacuum manifold. The supernatants of test compounds were diluted 2-fold with acetonitrile contained 4% DMSO before measuring. Ondansetron was used as reference compound to control proper assay performance. 200 μl of samples were transferred to 96-well plate and measured in 200-550 nm range with 5 nm step. The effective range of this assay is approximately 2-200 μM and the compounds returning values close to the upper limit of the range may have higher actual solubility (e.g. 5 ? deoxy-5-fluorouddine).
# [4] = Metabolic stability in mouse liver microsomes; type: in vitro ADME; conditions: 2 μM, five time points over 40 min, NADPH
# Method: Metabolic stability of several compounds (1009, 1011, 1015, 1020, and 1056) and 2 reference compounds (propranolol and imipramine) were determined in mouse liver microsomes at five time points over 40 min using HPLC-MS. Metabolic stability is defined as the percentage of parent compound lost over time in the presence of a metabolically active test system.
# Metabolic stability in mouse liver microsomes: Mouse hepatic microsomes were isolated from pooled, perfused livers of Balb/c male mice according to the standard protocol. The batch of microsomes was tested for quality control using Imipramine, Propranolol and Verapamil as reference compounds. Microsomal incubations were carried out in 96-well plates in 5 aliquots of 40 μL each (one for each time point). Liver microsomal incubation medium contained PBS (100 mM, pH 7.4), MgCl2 (3.3 mM), NADPH (3 mM), glucose-6-phosphate (5.3 mM), glucose-6-phosphate dehydrogenase (0.67 units/ml) with 0.42 mg of liver microsomal protein per ml. Control incubations were performed replacing the NADPH-cofactor system with PBS. Test compound (2 μM, final solvent concentration 1.6%) was incubated with microsomes at 37° C., shaking at 100 rpm. Incubations were performed in duplicates. Five time points over 40 minutes had been analyzed. The reactions were stopped by adding 12 volumes of 90% acetonitrile-water to incubation aliquots, followed by protein sedimentation by centrifuging at 5500 rpm for 3 minutes. […]. Supernatants were analyzed using the HPLC system coupled with tandem mass spectrometer.
# The elimination constant (kel), half-life (t1/2) and intrinsic clearance (Clint) were determined in plot of […] versus time, using linear regression analysis: […]
# [5] = system: LRP6; test: Wnt reporter assay in HEK293 cells after LRP6 siRNA knockdown; type: cell-based, human; conditions: CI-994 16 μM, 1011, 1015, 1023 1 μM, 24 h
# Method: as §1
# (A) HT1080 cells stably transduced with human LRP6 with HA tag were treated with niciosamide (1 μM) and other compounds as noted (1 μM) for 24 hr. The levels of HA-LRP6 were examined by Western blots with anti-HA antibody. All samples were also probed with anti-actin antibody to verify equal loading. This experiment is a representative of two such experiments performed with similar data. (B) N2a cells were treated with 1015 and 1011 at the indicated concentrations for 24 h. The expression levels of LRP6, β-catenin and actin were examined by Western blotting. This experiment is a representative of three such experiments performed with similar data. (C) HEK293 cells were transfected with LRP6 siRNAs, and after 8 h incubation were further transfected with Super8XTOPFlash construct and β galactosidase-expressing vector. ON-TARGETplus double-stranded siRNA oligomers against human LRP6 and non-specific scrambled siRNA control (Stealth RNAi™ siRNA Negative Control, Med GC) were purchased from Thermo Scientific. siRNA LRP6-1, siRNA LRP6-2 and control siRNA were Thermo Scientific catalog numbers J-003845-09, J-003845-11 and 12935300, respectively. […] The luciferase activity was then measured and normalized to β-galactosidase activity. […]
# [6] = system: Wnt/β-catenin signaling; conditions: cancer cells; cited from earlier work
# [7] = read-out: PBS solubility, pH 7.4, μM Exp1
# [8] = read-out: PBS solubility, pH 7.4, μM Exp2
# [9] = read-out: PBS solubility, pH 7.4, μM Mean
smiles,measurement,setting,value
Nc1ccccc1NC(=O)c1ccc(NC(=O)CCN2CCC[C@@H]3CCCC[C@@H]32)cn1 (racemic) [Compound 1059],EC50,[1],494 ± 147 nM
Nc1ccccc1NC(=O)c1ccc(C(=O)NCCN2CCCC3CCCCC32)cn1 (stereo not shown) [Compound 1009],EC50,[1],601 ± 101 nM
same,potency in inducing C2C12 osteoblastic differentiation compared with CI-994,[2],more potent than CI-994
same,solubility at 2 h,[3]; [7],197 µM
same,solubility at 2 h,[3]; [8],191 µM
same,solubility at 2 h,[3]; [9],194 µM
same,stability in mouse hepatic microsomal system,[4],moderate stability
Nc1ccccc1NC(=O)c1ccc(C(=O)NCCN2CCC3(CCCCC3)CC2)cn1 [Compound 1013],EC50,[1],444 ± 36 nM
Nc1ccccc1NC(=O)c1ccc(C(=O)NCC2CCN2C2CCCC2)cc1 (stereo not shown) [Compound 1021],EC50,[1],1380 ± 643 nM
CC1CCCC(C)N1CCC(=O)Nc1ccc(C(=O)Nc2ccccc2N)nc1 (stereo not shown) [Compound 1023],EC50,[1],496 ± 195 nM
same,effect of knockdown of LRP6 expression on the compound's effect on Wnt/β-catenin signaling,[5],significantly attenuated
CCN1CCCC1CNC(=O)c1ccc(C(=O)Nc2ccccc2N)nc1 (stereo not shown) [Compound 1028],EC50,[1],519 ± 24 nM
COCCN1CCCC1CNC(=O)c1ccc(C(=O)Nc2ccccc2N)nc1 (stereo not shown) [Compound 1030],EC50,[1],483 ± 40 nM
Nc1ccccc1NC(=O)c1ccc(C(=O)NCC2CCCN2CC2CCCCC2)cn1 (stereo not shown) [Compound 1038],EC50,[1],526 ± 268 nM
Nc1ccccc1NC(=O)c1ccc(C(=O)NCC2CCCN2CCc2ccccc2)cn1 (stereo not shown) [Compound 1039],Wnt reporter activity / activation of Wnt/β-catenin signaling,[1],activate
same,EC50,[1],298 ± 25 nM
COc1ccc(CN2CCC2CNC(=O)c2ccc(C(=O)Nc3ccccc3N)nc2)cc1 (stereo not shown) [Compound 1041],EC50,[1],596 ± 79 nM
Nc1ccccc1NC(=O)c1ccc(C(=O)NCC2CCN2C2CCCCC2)cn1 (stereo not shown) [Compound 1045],EC50,[1],507 ± 128 nM
Nc1ccccc1NC(=O)c1ccc(C(=O)NCC2CCCN2C2CCCCC2)cn1 (stereo not shown) [Compound 1046],EC50,[1],532 ± 38 nM
Nc1ccccc1NC(=O)c1ccc(C(=O)NCC2CCN2C2CCCCCC2)cn1 (stereo not shown) [Compound 1050],EC50,[1],408 ± 77 nM
CC(=O)Nc1ccc(C(=O)Nc2ccccc2N)nc1 [Compound 1056],stability in mouse hepatic microsomal system,[4],good stability
"Cc1cc(Cl)ccc1OCCCC(=O)NO [Droxinostat, reference compound]",Wnt reporter activity / activation of Wnt/β-catenin signaling,[1],unable to activate
"Cn1cc(CNCC2CCN(c3ncc(C(=O)NO)cn3)CC2)c2ccccc21 [JNJ-26481585, reference compound]",Wnt reporter activity / activation of Wnt/β-catenin signaling,[1],unable to activate
"O=C(Nc1ccc([N+](=O)[O-])cc1Cl)c1cc(Cl)ccc1O [Niclosamide, 5-chloro-N-[2-chloro-4-nitrophenyl]-2-hydroxy benzamide]",Wnt/β-catenin signaling (by inducing LRP6 degradation),[6],suppresses
"Cc1nccn1CC1CCc2c(c3ccccc3n2C)C1=O (stereo not shown) [Ondansetron, reference compound]",solubility at 2 h,[3]; [7],109 µM
same,solubility at 2 h,[3]; [8],113 µM
same,solubility at 2 h,[3]; [9],111 µM
"O=C(CCCCCN1C(=O)c2cccc3cccc(c23)C1=O)NO [Scriptaid, reference compound]",Wnt reporter activity / activation of Wnt/β-catenin signaling,[1],unable to activate

# — patent publication US20220267271A1, “WNT ACTIVATORS AND METHODS OF USE” (MAYO FOUNDATION FOR MEDICAL EDUCATION AND RESEARCH, priority 2019, published 2022)
